US7273614B2 (priority 1993, dated 2007)
“Also recorded” adds a separate entry of the source. Read-outs that look alike come from different tables or passages of the source. Peptide text beside a SMILES is read from it.

Assays:
HIV-1LAI [1] = experiment: Cell free virus infection assay (CEM CD4+ cells, reverse transcriptase readout); format: cell-based; details: FIG. 1 legend
Method: (§1) Synthetic peptides were incubated at 37° C. with either 247 TCID50 (for experiment depicted in FIG. 2), or 62 TCID50 (for experiment depicted in FIG. 3) units of HIV-1LAI virus or 25 TCID50 units of HIV-2NIHZ and CEM CD4+ cells at peptide concentrations of 0, 0.04, 0.4, 4.0, and 40 μg/ml for 7 days. The resulting reverse transcriptase (RT) activity in counts per minute was determined using the assay described, below, in Section 6.1.5. See, Reed, L. J. et al., 1938, Am. J. Hyg. 27: 493-497 for an explanation of TCID50 calculations.
(§2) The micro-reverse transcriptase (RT) assay was adapted from Goff et al. (Goff, S. et al., 1981, J. Virol. 38:239-248) and Willey et al. (Willey, R. et al., 1988, J. Virol. 62:139-147). Supernatants from virus/cell cultures are adjusted to 1% Triton-X100. A 10 μl sample of supernatant was added to 50 μl of RT cocktail in a 96-well U-bottom microtitre plate and the samples incubated at 37° C. for 90 min. The RT cocktail contained 75 mM KCl, 2 mM dithiothreitol, 5 mM MgCl2, 5 μg/ml poly A (Pharmacia, cat. No. 27-4110-01), 0.25 units/ml oligo dT (Pharmacia, cat. No. 27-7858-01), 0.05% NP40, 50 mM Tris-HCl, pH 7.8, 0.5 μM non-radioactive dTTP, and 10 μCi/ml ^32P-dTTP (Amersham, cat. No. PB.10167). […]

HIV-1LAI [2] = details: Wild et al. 1992; cited from earlier work
[3] = target: viral gp41 of HIV-1 (HIV-1IIIB) (HIV-1 IIIB) (UniProt P03377); experiment: cell-based or functional assay
HIV-2NIHZ = experiment: Cell free virus infection assay (CEM CD4+ cells, reverse transcriptase readout); format: cell-based
Method: as §1, §2

Fab-d = experiment: ELISA analysis of DP178 binding to the leucine zipper motif of gp41 (Fab-d ELISA); design: species or system human; details: FIG. 10
Method: Each well was washed three times with distilled water then blocked with 3% bovine serum albumin (BSA) for 2 hours. After blocking, peptides with 0.5% BSA in TBST (40 mM Tris-HCl pH7.5, 150 mM NaCl, 0.05% Tween 20) were added to the ELISA plates and incubated at room temperature for 1 hour. After washing three times with TBST, Fab-d was added at a concentration of 10 ng/ml with 0.5% BSA in TBST. The plates were washed three times with TBST after incubation at room temperature for 1 hour. Horse radish peroxidase (HRP) conjugated goat antihuman Fab antiserum at a 2000 fold dilution in TBST with 0.5% BSA was added to each well and incubated at room temperature for 45 minutes. The plates were then washed four times with TBST. The peroxidase substrate o-phenylene diamine (2.5 mg/ml) and 0.15% H2O2 were added to develop the color. The reaction was stopped with an equal volume of 4.5 N H2SO4 after incubation at room temperature for 10 minutes. The optical density of the stopped reaction mixture was measured with a micro plate reader (Molecular Design) at 490 nm.

HIV-1IIIB = format: cell-based; details: 10 nM peptide
Method: CEM cells (7×10^4) were incubated with HIV-1IIIB chronically infected CEM cells (10^4) in 96-well flat-bottomed half-area plates (Costar) in 100 μl culture medium. Peptide and fusion proteins at various concentrations in 10 μl culture medium were incubated with the cell mixtures at 37° C. for 24 hours. Multinucleated syncytia were estimated with microscopic examination.

HIV-2 = experiment: Cell fusion assay: HIV-2 mediated syncytia formation; format: cell-based; details: failed to block at highest concentration; FIG. 5
Method: Approximately 7×10^4 Molt cells were incubated with 1×10^4 CEM cells chronically infected with the HIV-1LAI virus in 96-well plates (one-half area cluster plates; Costar, Cambridge, Mass.) in a final volume of 100 μl culture medium as previously described (Matthews, T. J. et al., 1987, Proc. Natl. Acad. Sci. USA 84: 5424-5428). Peptide inhibitors were added in a volume of 10 μl and the cell mixtures were incubated for 24 hr. at 37° C. At that time, multinucleated giant cells were estimated by microscopic examination at a 40× magnification which allowed visualization of the entire well in a single field.

HIV-1/IIIb = experiment: Anti-HIV assays of DP107 and DP178 truncations and mutations; format: cell-based; details: FIGS. 49, 50
Excerpt: Anti-HIV assays: The antiviral assays performed were as those described, above, in Section 6.1. Assays utilized HIV-1/IIIb and/or HIV-2 NIHZ isolates. Purified peptides were used, unless otherwise noted in FIGS. 49A-L.

CEM cells = experiment: Cell proliferation and toxicity assay; format: cell-based
Method: Cell proliferation and toxicity assay: Approximately 3.8×10^5 CEM cells for each peptide concentration were incubated for 3 days at 37° C. in T25 flasks. Peptides tested were DP178 (SEQ ID:1) and DP-116 (SEQ ID:9), as described in FIG. 1. Peptides were synthesized as described, above, in Section 6.1. The concentrations of each peptide used were 0, 2.5, 10, and 40 μg/ml. Cell counts were taken at incubation times of 0, 24, 48, and 72 hours.

CC[C@H](C)[C@H](NC(=O)[C@H](CCCNC(=N)N)NC(=O)[C@H](C)NC(=O)[C@H](CCC(N)=O)NC(=O)[C@H](CC(C)C)NC(C)=O)C(=O)N[C@@H](CC(C)C)C(=O)N[C@@H](C)C(=O)N[C@H](C(=O)N[C@@H](CCC(=O)O)C(=O)N[C@@H](CCCNC(=N)N)C(=O)N[C@@H](Cc1ccc(O)cc1)C(=O)N[C@@H](CC(C)C)C(=O)N[C@@H](CCCCN)C(=O)N[C@@H](CC(=O)O)C(=O)N[C@@H](CCC(N)=O)C(=O)N[C@@H](CCC(N)=O)C(=O)N[C@@H](CCC(N)=O)C(N)=O)C(C)C [DP-116] (Ac-LQARILAVERYLKDQQQ-NH2)
inhibition of HIV-1 cell free virus infection (in words) (HIV-1LAI [1]): negative for inhibition of HIV-1 infection
activity in cell-free HIV-1 infection assay, previously shown (in words) (HIV-1LAI [2]): inactive; also recorded: ineffective as a HIV inhibitor

DP107 (SEQ ID NO: 89), synthetic peptide corresponding to amino acids 558 to 595 of HIV-1LAI gp41
Cell fusion (IC90) [3]: 1000 nM
HIV infectivity (IC90) [3]: 1000 nM

DP178 (SEQ ID NO:1), synthetic peptide corresponding to amino acids 638 to 673 of HIV-1LAI gp41
Cell fusion (IC90) [3]: 1 nM
HIV infectivity (IC90) [3]: 80 nM

Enfuvirtide
IC50 for HIV-2NIHZ (in words) (HIV-2NIHZ; 25 TCID50 HIV-2NIHZ, CEM cells, 7 days, FIG. 3): much higher IC50
potency as HIV-1 inhibitor relative to HIV-2 inhibitor (HIV-2NIHZ; HIV-1LAI vs HIV-2NIHZ cell-free infection): two logs more potent
Fab-d binding (in words) (Fab-d): failed to bind
syncytia in the presence of peptide (in words) (HIV-1IIIB): no observable syncytia
peptide concentration blocking HIV-2 mediated syncytia formation (HIV-2): > 10 µg/mL
concentration affording complete protection against syncytia formation (lowest concentration tested) (HIV-1; HIV-1LAI, FIG. 4): ≤ 12.5 ng/mL
concentration affording complete protection against syncytia formation (lowest concentration tested) (HIV-1; HIV-1MN, HIV-1RF, HIV-1SF2, FIG. 4): ≤ 100 ng/mL
concentration completely blocking virus induced syncytia formation (lowest effective inhibitory concentration) (HIV-1; HIV-1 mediated cell-cell fusion): 1 to 10 ng/mL
selectivity as inhibitor of HIV-1-mediated over HIV-2-mediated cell fusion (HIV-1; HIV-1 vs HIV-2): 4 log
peptide concentration blocking HIV-1-mediated syncytia formation (HIV-1; HIV-1 vs HIV-2 comparison, FIG. 5): below 1 ng/ml

H-YTNTIYTLLEESQNQQEKNEQELLELDKWASLWNWF-OH [DP-185]
HIV-1-mediated syncytia formation (in words) (HIV-1): block HIV-1-mediated syncytia formation
concentration with inhibitory activity on HIV-1-induced syncytia formation (HIV-1; lowest concentration tested, FIG. 4): ≤ 312.5 ng/mL

M41, maltose binding protein fusion with the extracellular domain of gp41 (540-686) (from UniProt P03377 540-686)
Cell fusion (IC90) [3]: > 50000 nM
HIV infectivity (IC90) [3]: > 16000 nM

T-235: SEQ ID NO. 162; DP178 truncation/mutation peptide (RMKQLEDKVEELLSKLELDKWASLWNWF)
anti-HIV antiviral activity (in words) (HIV-1/IIIb): high level of antiviral activity

T-377: SEQ ID NO. 167; DP178 truncation/mutation peptide (CLELDKWASLANWFC)
anti-HIV antiviral activity (in words) (HIV-1/IIIb): high level of antiviral activity

T-378: SEQ ID NO. 168; DP178 truncation/mutation peptide (CLELDKWASLWNFFC)
anti-HIV antiviral activity (in words) (HIV-1/IIIb): high level of antiviral activity

T-381: SEQ ID NO. 164; DP178 truncation/mutation peptide (RMKQLEDKVEELLSKNYHLENELELDKWASLWNWF)
anti-HIV antiviral activity (in words) (HIV-1/IIIb): high level of antiviral activity

T-590: SEQ ID NO. 167; DP178 truncation/mutation peptide (CLELDKWASLANWFC)
anti-HIV antiviral activity (in words) (HIV-1/IIIb): high level of antiviral activity

T-591: SEQ ID NO. 168; DP178 truncation/mutation peptide (CLELDKWASLWNFFC)
anti-HIV antiviral activity (in words) (HIV-1/IIIb): high level of antiviral activity

T-611: SEQ ID NO. 175; DP178 truncation/mutation peptide (LKLDKWASLWNWF)
anti-HIV antiviral activity (in words) (HIV-1/IIIb): high level of antiviral activity

T-677: SEQ ID NO. 165; DP178 truncation/mutation peptide (FWNWLSAWKDLELYPGSLELDKWASLWNWF)
anti-HIV antiviral activity (in words) (HIV-1/IIIb): high level of antiviral activity

enfuvirtide
non-cytotoxic concentration relative to HIV inhibitory dose (CEM cells; 40 μg/ml vs HIV inhibitory dose): greater than 3 log
cytotoxic effects on cells in culture (in words) (CEM cells; up to highest peptide concentration tested, 40 μg/ml, CEM cells, 3 days): not toxic to cells; also recorded: non-cytotoxic; also recorded: no cytotoxic effects
